This is an account of results in patent EP0346744A1, “Condensed diazepinones, process for their preparation and medicaments containing them” (Dr. Karl Thomae GmbH, priority 1988, dated 1989).

Molecules are shown by their SMILES. Counter-ions that a name gives are not always drawn.

Experiment [1] deals with Herzfrequenz. As to the kind of experiment: Inhibition of acetylcholine effect on heart rate of the guinea pig. The class given is in vivo, Meerschweinchen. As to conditions: for ED50: Cavia porcellus, 5 min, anaesthetised guinea pig, 10 µg/kg acetylcholine 5 min after test substance, heart rate by ECG. The method, then:
(§1) 3. Hemmung der Acetylcholinwirkung auf Blase, Bronchien und Herzfrequenz des Meerschweinchens
(§2) Am narkotisierten Meerschweinchen wurden 5 Minuten nach Gabe der Prüfsubstanz 10 µg/kg Acetylcholin intravenös als auch gleichzeitig intraarteriell injiziert. Dabei wurde die Herzfrequenz durch extrakorporale Ableitung des EKG, der Ausatemwiderstand nach Konzett-Rößler und die Kontraktion der freigelegten Harnblase direkt registriert. Für die Hemmung der Acetylcholinwirkung an den untersuchten Organen wurden Dosis-Wirkungskurven aufgenommen und daraus -log EDso-Werte bestimmt. Ergebnisse siehe Tabelle III.

The test system of experiment [2] is M1. As to the kind of experiment: Inhibition of McN-A-343-induced blood pressure rise in the rat (M1/M2 selectivity). The class given is in vivo, Ratte. As to the method: (§3) 1. M,- M2-Selektivität an der Ratte
(§4) Die angewandte Methode wurde von Hammer und Giachetti (Life Sciences 31, 2991-2998 (1982)) beschrieben. 5 Minuten nach intravenöser Injektion steigender Dosen der Substanz wurden entweder der rechte Vagus elektrisch stimuliert (Frequenz: 25 Hz; Pulsbreite: 2ms; Reizdauer: 30s; Voltzahl: supramaximal) oder 0,3 mg kg McN-A-343 in männliche THOM-Ratten intravenös injiziert. Die durch Vagusstimulation hervorgeru fene Bradykardie und der durch McN-A-343 verursachte Blutdruckanstieg wurden bestimmt. Die Dosis der Substanzen, die entweder die vagale Bradykardie (M2) oder den Blutdruckanstieg (Mi) um 50% verminderte, wurde graphisch ermittelt. Ergebnisse siehe Tabelle II.

The subject of experiment [3] is Blase. The experiment can be described thus: Inhibition of acetylcholine effect on bladder of the guinea pig. Format: in vivo, Meerschweinchen. As to conditions: for ED50: Cavia porcellus, 5 min, anaesthetised guinea pig, 10 µg/kg acetylcholine 5 min after test substance, contraction of exposed urinary bladder, read-out: -log ED50 Blase (converted). The method, then: as §1, §2

Experiment [4] concerns M2. As to the kind of experiment: Inhibition of vagal-stimulation bradycardia in the rat (M1/M2 selectivity, heart). The class given is in vivo, Ratte. As to the method:
as §3, §4

Experiment [5] has as its system Bronchien. The experiment can be described thus: Inhibition of acetylcholine effect on bronchi of the guinea pig. Format: in vivo, Meerschweinchen. The settings on record: for ED50: Cavia porcellus, 5 min, anaesthetised guinea pig, 10 µg/kg acetylcholine 5 min after test substance, expiratory resistance (Konzett-Rößler), read-out: -log ED50 Bronchien (converted). As to the method:
as §1, §2

In experiment [6] the test system is Speichelsekretion. The experiment can be described thus: Inhibition of pilocarpine-induced salivation in the rat. The class given is in vivo, Ratte. The settings on record: iv; urethane-anaesthetised rat, i.v.; salivation induced by 2 mg/kg pilocarpine s.c.; dose reducing saliva volume by 50%; read-out: -log ED50 Salivation (converted). The method, then:
2. Speichselsekretionshemmende Wirkung an der Ratte
Nach Lavy und Mulder (Arch. int. Pharmacodyn. 178. 437-445, (1969)) erhielten mit 1,2 glkg Urethan narkotisierte männliche THOM-Ratten steigende Dosen der Substanz i.v.. Die Speichelsekretion wurde durch s.c. Gabe von 2 mg kg Pilocarpin ausgelöst. Der Speichel wurde mit Fließpapier aufgesaugt, die von ihm eingenommene Fläche alle 5 Minuten planimetrisch bestimmt. Die Dosis der Substanz, die das Speichelvolumen um 50% verminderte, wurde graphisch ermittelt. Ergebnisse siehe Tabelle II.

The mark [7] stands for this setting: rat, i.v., 5 min before 0,3 mg/kg McN-A-343 i.v., dose reducing blood pressure rise (M1) by 50%.
Setting [8] is: rat, i.v., 5 min before electrical stimulation of the right vagus, dose reducing vagal bradycardia (M2) by 50%.

Take `CN1C2CCC1CC(OC(=O)C(CO)c1ccccc1)C2` (racemic) [G, Atropin, reference compound]: the “-log ED50 Herz” value in experiment [1] (in vivo) is recorded as 7,70 Molkg^-1; in experiment [4] (in vivo, iv), 7,94 Mkg^-1. In addition, the “-log ED50 Blutdruck” value in experiment [2] (in vivo) is reported as 7,34 Mkg^-1. For the same compound, the “-log ED50 Blase” value in experiment [3] (in vivo) is on record as 7,03 Molkg^-1. Besides, the “-log ED50 Bronchien” value in experiment [5] (in vivo) is on record as 7,96 Molkg^-1.

By ED50 is commonly meant the dose that gives a 50% effect, or the effect in half of the subjects. With `CN(CCC1CCCCN1C)CC(=O)N1c2ccccc2C(=O)Nc2cccnc21` (centres unmarked) [A], the ED50 in experiment [1] is 0.0178 µmol/kg; in experiment [3], 0.12 µmol/kg; in experiment [5], 0.0457 µmol/kg; in experiment [6], 1.23 µmol/kg. For the same compound, the “-log ED50 Blutdruck” value in experiment [2] (setting [7]) is listed as 6,34 Mkg^-1. In addition, in experiment [4] (setting [8]), the “-log ED50 Herz” value was 7,48 Mkg^-1.

Turning to `CN(CCC1CCCCCN1C)CC(=O)N1c2ccccc2C(=O)Nc2cccnc21` (centres unmarked) [B, 5.11-Dihydro-11-[[[2-(1-methyl-hexahydro-1 H-2-azepinyi)ethyl]methylamino]acetyl]-6H-pyrido-[2,3-b][1,4]benzodiazepin6-on], the ED50 in experiment [1] is 0.0251 µmol/kg; in experiment [3], 0.269 µmol/kg; in experiment [5], 0.0646 µmol/kg; in experiment [6], 3.39 µmol/kg. The “-log ED50 Blutdruck” value in experiment [2] (setting [7]) is on record as 6,46 Mkg^-1. For the same compound, the “-log ED50 Herz” value in experiment [4] (setting [8]) is listed as 7,41 Mkg^-1.

As for `CN(CCC1CCCCCN1C)CC(=O)N1c2cc(Cl)ccc2C(=O)Nc2cccnc21` (centres unmarked) [C, 9-Chior-5,11-dihydro-11-[[[2-(1-methyl-hexahydro-1H-2-azepinyl)ethyl]methylamino]acetyl]-6H-pyrido[2,3-b][1,4]benzodiazepin-6-on-hydrochlorid], the ED50 is 0.055 µmol/kg in experiment [1], 0.234 µmol/kg in experiment [3], 0.191 µmol/kg in experiment [5] and 3.02 µmol/kg in experiment [6]. Also, the “-log ED50 Herz” value in experiment [4] (setting [8]) is 7,5 Mkg^-1.

Take `Cc1ccc2c(c1)C(=O)Nc1cccnc1N2C(=O)CN(C)CCC1CCCCCN1C` (centres unmarked) [D, 5,11-Dihydro-8-methyl-11-[[[2-(1-methyl-hexahydro-1H-2-azepinyl)ethyl]methylamino]acetyl]-6H-pyrido[2,3-b][1,4]benzodiazepin-6-on]: the ED50 is 0.0525 µmol/kg in experiment [1], 0.347 µmol/kg in experiment [3], 0.135 µmol/kg in experiment [5] and 0.617 µmol/kg in experiment [6]. Moreover, the “-log ED50 Herz” value in experiment [4] (setting [8]) is given as 7,67 Mkg^-1.

In the case of `CCN(CC)CC1CCCCN1CC(=O)N1c2ccccc2C(=O)Nc2cccnc21` (centres unmarked) [E, 11-[[2-[(Diethylamino)methyl]-1-piperidinyl]acetyl]-5,11-dihydro-6H-pyrido[2,3-b][1,4]-benzodiazepin-6-on, reference compound], the “-log ED50 Herz” value in experiment [4] (setting [8]) was 6,42 Mkg^-1. Also, in experiment [6], the ED50 was 10 µmol/kg.
